assay: Preservation of bioactivity of solubilized tissue constituents under ultrasonic energy exposure; conditions: 1% w/v in LPM

Preservation of bioactivity of solubilized proteins and nucleic acids, complete preservation:
CCCCCCCCCC[N+](C)(C)CCCS(=O)(=O)[O-] [DPS, 3-(decyldimethylammonio) propane sulfonate]
CCCCCCCCCCCCOCCOCCOCCOCCO [Brij 30, polyethylene glycol dodecyl ether]
CCCCCCCCCCCC(=O)N(C)CC(=O)O [NLS, N-lauroyl sarcosine]

From patent publication US9328324B2, “System, method and devices for tissue-based diagnosis” (The Regents of the University of California, priority 2009, dated 2016)
